Laboratory results taken from the supplement of paper PMC10307832.

How the values were obtained:
Test in all cases: relative viability (nuclei count vs DMSO), 5 days (fraction); higher = more cells survive
[1] = compound: C[C@@]1(C(=O)Nc2ccc(F)nc2)CCCN1c1nc(Nc2cc(C3CC3)n[nH]2)c2cccn2n1 + C[C@]1(O)C[C@@H](c2nc(-c3ccc4ccc(-c5ccccc5)nc4c3)c3c(N)nccn32)C1 [Linsitinib] (partner 1 µM)
How it was run: (§1)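 Values are medians from duplicate plates. Each reflects relative viability, defined as the nuclei count of treated wells over that of vehicle wells. Lung cancer cell lines in 1536-well plates were pin-tool dosed one day after seeding with one drug alone or with a fixed anchor-drug dose plus five library-drug doses (not always all listed) in √10 steps, then fixed, stained and imaged at 4× after 5 days.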

[2] = compound: C[C@@]1(C(=O)Nc2ccc(F)nc2)CCCN1c1nc(Nc2cc(C3CC3)n[nH]2)c2cccn2n1 + CC(=O)Nc1cccc(-n2c(=O)n(C3CC3)c(=O)c3c(Nc4ccc(I)cc4F)n(C)c(=O)c(C)c32)c1 [Trametinib] (partner 0.02 µM)
How it was run: as §1

[3] = compound: C[C@@]1(C(=O)Nc2ccc(F)nc2)CCCN1c1nc(Nc2cc(C3CC3)n[nH]2)c2cccn2n1 + Nc1ncn([C@H]2C[C@H](O)[C@@H](CO)O2)c(=O)n1 [Decitabine] (partner 2 µM)
How it was run: as §1

Motesanib + Luminespib = compound: CC1(C)CNc2cc(NC(=O)c3cccnc3NCc3ccncc3)ccc21 [Motesanib] + CCNC(=O)c1noc(-c2cc(C(C)C)c(O)cc2O)c1-c1ccc(CN2CCOCC2)cc1 [Luminespib] (partner 0.01 µM)
How it was run: as §1

Row | Cell Line | relative viability ([1]; first compound 0.04 µM) | relative viability ([1]; first compound 0.1265 µM) | relative viability ([1]; first compound 0.4 µM) | relative viability ([1]; first compound 1.265 µM) | relative viability ([2]; first compound 0.04 µM) | relative viability ([2]; first compound 0.1265 µM) | relative viability ([2]; first compound 0.4 µM) | relative viability ([2]; first compound 1.265 µM) | relative viability ([3]; first compound 0.04 µM) | relative viability ([3]; first compound 0.1265 µM) | relative viability ([3]; first compound 0.4 µM) | relative viability ([3]; first compound 1.265 µM) | relative viability (Motesanib + Luminespib; first compound 0.01 µM) | relative viability (Motesanib + Luminespib; first compound 0.03162 µM) | relative viability (Motesanib + Luminespib; first compound 0.1 µM) | relative viability (Motesanib + Luminespib; first compound 0.3162 µM) | relative viability (Motesanib + Luminespib; first compound 1 µM)
1 | IA-LM | 0.602 | 0.718 | 0.459 | 0.452 |  |  |  |  |  |  |  |  |  |  |  |  | 
2 | LC-2-ad | 0.897 | 0.865 | 0.788 | 0.576 | 0.848 | 0.749 | 0.648 | 0.735 | 0.82 | 0.73 | 0.66 | 0.606 | 1.03 | 1.01 | 0.959 | 1.07 | 1.19
3 | LCLC-97TM1 | 0.191 | 0.173 | 0.163 | 0.207 | 0.232 | 0.0949 | 0.0995 | 0.13 | 0.228 | 0.131 | 0.111 | 0.271 | 0.635 | 0.809 | 0.707 | 0.813 | 0.793
4 | LCLC-103H | 1.23 | 1.01 | 1.01 | 1.18 | 0.668 | 0.613 | 0.62 | 0.69 | 0.745 | 0.661 | 0.71 | 0.712 | 0.92 | 0.92 | 0.996 | 1.04 | 0.98
5 | LK-2 | 0.579 | 1.11 | 0.376 | 0.573 | 0.426 | 1.15 | 0.416 | 0.495 |  | 0.171 | 0.18 | 0.162 | 0.213 | 0.191 |  | 0.189 | 0.192
6 | LOU-NH91 | 0.937 | 1.12 | 0.82 | 0.977 | 0.737 | 0.845 | 0.709 | 0.755 | 0.774 | 0.874 | 0.744 | 0.771 | 0.38 | 0.364 | 0.332 | 0.379 | 0.393
7 | LU99A | 0.544 | 0.497 | 0.499 | 0.467 | 0.411 | 0.352 | 0.399 | 0.504 | 0.764 | 0.585 | 0.527 | 0.738 | 0.228 | 0.187 | 0.336 | 0.243 | 0.25
8 | LXF-289 | 1.02 | 0.947 | 0.936 | 1.02 | 0.67 | 0.619 | 0.645 | 0.717 | 0.361 | 0.385 | 0.394 | 0.383 | 0.639 | 0.71 | 0.655 | 0.724 | 0.743
9 | NCI-H23 | 0.612 | 0.5 | 0.484 | 0.613 | 0.233 | 0.199 | 0.178 | 0.252 | 0.274 | 0.253 | 0.258 | 0.271 |  | 0.193 | 0.209 | 0.205 | 0.222
10 | NCI-H322M | 0.968 | 0.83 | 0.865 | 0.96 | 0.435 | 0.428 | 0.334 | 0.347 | 0.658 | 0.533 | 0.494 | 0.547 | 0.913 | 0.951 | 0.88 | 0.842 | 0.949
11 | NCI-H358 | 0.654 | 0.663 | 0.494 | 0.474 | 0.129 | 0.106 | 0.112 | 0.101 | 0.212 | 0.146 | 0.165 | 0.116 | 0.317 | 0.333 | 0.402 | 0.479 | 0.369
12 | NCI-H441 | 0.435 | 0.417 | 0.476 | 0.543 | 0.23 | 0.164 | 0.21 | 0.211 | 0.24 | 0.213 | 0.23 | 0.223 | 0.274 | 0.314 | 0.333 | 0.302 | 0.269
13 | NCI-H460 | 0.834 | 0.667 | 0.708 | 0.82 | 0.159 | 0.0315 | 0.0726 | 0.0967 | 0.506 | 0.446 | 0.413 | 0.346 | 0.0344 | 0.0382 | 0.0342 | 0.0458 | 0.0311
14 | NCI-H522 |  |  |  |  | 0.692 | 0.696 | 0.595 | 0.586 | 0.616 | 0.607 | 0.591 | 0.639 |  | 1.14 | 1.22 | 1.18 | 1.1
15 | NCI-H1299 | 0.988 | 1.04 | 1 | 0.988 |  |  |  |  |  |  |  |  |  |  |  |  | 
16 | NCI-H1563 | 1.11 | 1.07 | 1.06 | 1.16 |  |  |  |  |  |  |  |  | 0.523 | 0.504 | 0.54 | 0.542 | 0.487
17 | NCI-H1623 |  |  |  |  |  |  |  |  |  |  |  |  | 0.605 | 0.506 | 0.49 | 0.306 | 0.515
18 | NCI-H1648 |  |  |  |  | 0.391 | 0.285 | 0.282 | 0.39 | 0.465 | 0.464 | 0.416 | 0.361 |  |  |  |  | 
19 | NCI-H1650 |  |  |  |  | 0.672 | 0.5 | 0.51 | 0.572 | 0.348 | 0.458 | 0.463 | 0.447 | 0.181 | 0.179 | 0.185 | 0.19 | 0.2
20 | NCI-H1703 | 1.03 | 0.457 | 0.632 | 0.695 |  |  |  |  |  |  |  |  |  |  |  |  | 
21 | NCI-H2170 |  |  |  |  | 0.951 | 0.966 | 0.894 | 0.992 | 0.43 | 0.489 | 0.442 | 0.468 | 0.628 | 0.726 | 0.39 | 0.734 | 0.645
22 | NCI-H2228 | 0.679 | 0.616 | 0.69 | 0.769 | 0.485 | 0.287 | 0.276 | 0.302 |  |  |  |  | 0.19 | 0.148 | 0.228 | 0.142 | 0.163
23 | NCI-H2342 |  |  |  |  | 0.668 | 0.813 | 0.605 | 0.7 | 0.685 | 0.636 | 0.559 | 0.671 | 0.647 | 0.622 | 0.795 | 0.642 | 0.841
24 | SW 900 |  |  |  |  | 0.764 | 0.805 | 0.808 | 0.572 | 0.403 | 0.437 | 0.351 | 0.349 | 0.172 | 0.181 | 0.182 | 0.168 | 0.167
